# Assay results: paper PMC7039890, “Aedes aegypti Odorant Binding Protein 22 selectively binds fatty acids through a conformational change in its C-terminal tail” (Scientific Reports, 2020)
# Values joined by “and” are separate entries in the source; they are usually repeats but may differ in a detail not shown here. Equal entries are not always repeated. Where two headings read alike, the source gives them in different places.
# Key:
# [1] = target: T1, AeOBP22 (Aedes aegypti, UniProt Q1HRL7); assay: 1-NPN fluorescent reporter binding; settings: result in words
# T1 construct: The mature form of AeOBP22 lacking the N-terminal signal peptide was expressed and purified as previously described; made in house
# T1 sequence (Q1HRL7 17-138): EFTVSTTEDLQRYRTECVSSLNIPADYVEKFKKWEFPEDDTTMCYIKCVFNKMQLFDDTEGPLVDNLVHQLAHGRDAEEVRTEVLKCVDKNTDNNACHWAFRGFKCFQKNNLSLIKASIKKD
# [2] = target: T1, AeOBP22; assay: NMR 1H-15N HSQC ligand screening / chemical shift perturbation; format: binding; settings: protein 100 μM, sodium phosphate pH 6.5; for binding to AeOBP22 judged by NMR: result in words
# Procedure: NMR experiments were performed at 25 °C on a either a Varian 900 MHz DD2, Varian INOVA 600 MHz or Bruker Avance Neo 600 MHz spectrometer. Samples for NMR were dissolved in sodium phosphate (20 mM, pH 6.5) and 90% H2O/10% D2O, with DSS (4,4-dimethyl-4-silapentane-1-sulfonic acid) (80 μM) added as an internal reference,[90]. For ligand screening, protein concentration was 100 μM and ligands were added to a concentration of 200–500 μM. For chemical shift assignments, relaxation rate measurements and structure calculations, protein concentrations were in the 400–700 μM range. All NMR experiments were collected using non uniform sampling methods[91] using the Poisson-gap sampling schemes implemented by Hyberts et al.[92] with a sampling density of 25–50%. Data were processed using the istHMS package v2111[93],[94] in combination with NmrPipe[95] and analyzed using Ccpnmr Analysis v 2.4.2[96].
# Chemical shift assignments for the complex with arachidonic acid and the backbone assignments for the apo-protein were previously reported. Backbone ^1H, ^15N, ^13Cα and ^13Cβ assignments for nonadecanoic, linoleic acid (pH 4.5 and pH 6.5), and decanoic acids were made in the same way. All other backbone amide assignments were made by following chemical shift trajectories as a function of ligand concentration or chain length. Normalized chemical shift differences are reported as[97],[98]1 Δδ=(ΔδH^2+0.14∗ΔδN^2)
# [3] = target: T1, AeOBP22; assay: DAF based competition binding assay (recovery of DAF fluorescence by fatty acids); settings: for Kd: pH 8.0 (HEPES 50 mM pH 8.1), 25 °C, ± s.d., n = 3
# Procedure: Binding affinities were determined by monitoring the recovery of DAF florescence as a function of fatty acid concentration. Stock solutions of fatty acid were made by dissolving the fatty acid in 100% DMSO, and then making a 1:1000 dilution into HEPES (50 mM pH 8.1). Samples were vortexed prior to each titration point. The protein/DAF solution contained fixed concentrations of DAF (100 nM) and AeOBP22 (1000 nM).
# As there is a single binding site for the fatty acid and the effect of fluorescence quenching can be completely reversed by increasing concentrations of fatty acids, we concluded that the fatty acid is directly competitive with binding of the DAF reporter. Therefore, the term for KD in Eq. 2 can be replaced with Eq. 3.3 Kapp=KD(1+I/KI) where I is the concentration of the competitor and KI is the dissociation constant of the competitor. The emission maxima were fit using Eq. 2 substituted into Eq. 1, with the concentration of the protein and DAF fixed at their known concentrations.
# [4] = target: T1, AeOBP22; assay: DAF fluorescence quenching titration with AeOBP22 (direct binding); settings: for Kd: direct titration, fluorescence quenching at 513 nm, n = 7
# Procedure: All fluorescence experiments were recorded at 25 °C on a Horiba Fluorolog 3–1–1 spectrofluorometer. DAF spectra were acquired using an excitation wavelength of 490 nm and the emission recorded between 500 and 560 nm at 1 nm intervals with an integration time of 1 s and slit widths of 2 nm. Stock solutions of DAF (Thermo Fisher, Batch D-109) were prepared in methanol with potassium hydroxide (0.2 M) and the concentration measured by UV spectroscopy using an extinction coefficient of 88000 M^−1 cm^−1 at 497 nm provided in the certificate of analysis. A 1:100 dilution was made into HEPES (50 mM, pH 8.1) and the sample vortexed and checked by UV to verify the DAF concentration. A solution of DAF (~80–100 nM) was titrated with increasing AeOBP22 to a final concentration of ~4 μM. The fluorescence intensity (cps) at the emission maxima (513 nm) was plotted against the total concentration of AeOBP22 and the KD for DAF was determined by fitting the raw fluorescence intensity for each replicate to Eq. (1):2 Fi=F0(1−([PT+LT+KD]−[PT+LT+KD]^2−4PTLT)/2LT)−Fmin where Fi is the measured fluorescence, F0 is the initial fluorescence in the absence of any protein, PT is the total protein, LT is the total concentration of DAF, and Fmin is the residual fluorescence after maximal quenching by the protein.
# [5] = target: T1, AeOBP22; assay: DAF based competition binding assay (recovery of DAF fluorescence by fatty acids)
# [6] = DAF competition, DAF 100 nM, protein 1000 nM, read-out: KD (nM) for binding of fatty acids to AeOBP22
# [7] = KD (nM) for binding of fatty acids to AeOBP22, DAF competition, DAF 100 nM, protein 1000 nM
# [8] = DAF competition, DAF 100 nM, protein 1000 nM, pH 8.0, n = 3, read-out: KI (dissociation constant of the competitor)
compound,measurement,setting,value
c1ccc(Nc2cccc3ccccc23)cc1 [1-NPN],binding of 1-NPN reporter to AeOBP22,[1],bound with low affinity
"CCCCCCCC/C=C\CCCCCCCC(=O)OC[C@@H](O)COP(=O)(O)O [C16-LPA, lyso-phosphatidic acid]",binding to AeOBP22 judged by NMR,[2],failed to identify
"O=C(O)CCCCCCCCCCCCCCCO [C16-OH, 16-hydroxy-hexadecanoic acid]",competition for binding of the fluorescent reporter (DAF),[3]; result in words,does not compete
"CCCCCCCCCCCCCCCC(=O)O [C16:0, palmitic acid]",Kd,[3]; [6],689 ± 89 nM
"CCCCCC/C=C\CCCCCCCC(=O)O [C16:1, palmitoleic acid]",Kd,[3]; [6],175 ± 41 nM
"CCCCCCCC/C=C\CCCCCCCC(=O)O [C18:1, Oleic acid]",Kd,[3]; [6],85 nM and 84 nM
"CCCCC/C=C\C/C=C\CCCCCCCC(=O)O [C18:2, linoleic acid]",Ki,[3],104 ± 30 nM
same,Kd,[3]; [7],104 ± 30 nM
"CCCCC/C=C\C/C=C\C/C=C\C/C=C\CCCC(=O)O [C20:4, arachidonic acid]",Ki,[3],286 ± 29 nM
same,Kd,[3]; [7],286 ± 29 nM
same,binding to AeOBP22 judged by NMR,[2],binding occurs with high affinity
"CCCCCCCCCCCC(=O)Nc1ccc2c(c1)C(=O)OC21c2ccc(O)cc2Oc2cc(O)ccc21 [DAF, 5-(N-dodecanoyl)-amino-fluorescein]",Kd,"[4]; HEPES pH 8.1, 25 °C, ± s.d., read-out: KD (nM) for binding of DAF to AeOBP22",1190 ± 261 nM
same,Kd,[4]; read-out: KD of DAF for AeOBP22,1190 nM
same,quenching of DAF fluorescence upon addition of AeOBP22 (reduction from maximal intensity),[4]; emission maximum 513 nm,~ 75%
O=Cc1ccccc1 [benzaldehyde],ligand concentration at which large NMR chemical shift changes occur,[2],> 1 mM
same,binding to AeOBP22 judged by NMR,[2],binding is weak
CC(C)=CCCC(C)CCO (centres unmarked) [citronellol],ligand concentration at which large NMR chemical shift changes occur,[2],> 1 mM
same,binding to AeOBP22 judged by NMR,[2],binding is weak
CC(C)=CCC/C(C)=C/CO [geraniol],ligand concentration at which large NMR chemical shift changes occur,[2],> 1 mM
same,binding to AeOBP22 judged by NMR,[2],binding is weak
"CC/C=C\C/C=C\C/C=C\CCCCCCCC(=O)O [αC18:3, a-Linoleic acid C18:3 (D9,12,15)]",Kd,[3]; [6],52 ± 8 nM
same,Ki,[3]; [8],52 ± 8 nM
same,Ki,"[5]; pH 5, n = 2, read-out: KI (dissociation constant of the competitor) at pH 5",42 ± 14 nM
same,Kd,"[5]; pH 5.0, ± s.d., n = 2, read-out: KD (nM) for binding of fatty acid to AeOBP22 at pH 5.0",42 ± 14 nM
same,Kd,"[5]; pH 6.5 as printed, read-out: binding affinity at pH 6.5 (as printed in text)",52 ± 8 nM
"CCCCC/C=C\C/C=C\C/C=C\CCCCC(=O)O [γC18:3, g-Linoleic acid C18:3 (D6 ,9,12)]",Kd,[3]; [6],111 ± 27 nM
same,Ki,[3]; [8],111 ± 27 nM
Eicosenoic acid [C20:1],Kd,[3]; [6],102 ± 16 nM
same,Ki,[3]; [8],102 ± 16 nM
